Measurements as given in ChEMBL document CHEMBL3259594, “Benzylpiperidine variations on histamine H3 receptor ligands for improved drug-likeness” (Bioorg Med Chem Lett, 2014).

molecular target: T1, Histamine H3 receptor (Homo sapiens, UniProt Q9Y5N1); assay: Displacement of [3H]N-alpha-methylhistamine from recombinant human histamine H3 receptor expressed in HEK293 cells after 90 mins; format: cell-based
T1 sequence (Q9Y5N1 whole entry): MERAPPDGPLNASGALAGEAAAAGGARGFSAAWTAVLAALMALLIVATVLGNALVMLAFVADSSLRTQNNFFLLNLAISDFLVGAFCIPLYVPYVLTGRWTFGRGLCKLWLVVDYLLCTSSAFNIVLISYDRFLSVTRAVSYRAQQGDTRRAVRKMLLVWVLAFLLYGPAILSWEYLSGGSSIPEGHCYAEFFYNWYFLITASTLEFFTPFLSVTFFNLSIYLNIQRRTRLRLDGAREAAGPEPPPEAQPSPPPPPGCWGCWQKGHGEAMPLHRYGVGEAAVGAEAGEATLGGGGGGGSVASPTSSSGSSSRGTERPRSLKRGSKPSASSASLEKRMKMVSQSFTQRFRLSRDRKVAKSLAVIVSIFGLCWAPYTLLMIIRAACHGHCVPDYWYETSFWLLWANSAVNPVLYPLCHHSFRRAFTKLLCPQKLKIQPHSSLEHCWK

Ki [nM]	SMILES
0.589	OC1CCN(Cc2ccc(OCCCN3CCCCC3)cc2)CC1
0.676	OCC1CCN(Cc2ccc(OCCCN3CCCCC3)cc2)CC1
0.229	CCOC(=O)C1CCN(Cc2ccc(OCCCN3CCCCC3)cc2)CC1
0.479	Cc1nnc(C2CCN(Cc3ccc(OCCCN4CCCCC4)cc3)CC2)o1
12.9	O=C(O)C1CCN(Cc2ccc(OCCCN3CCCCC3)cc2)CC1

molecular target: Histamine H3 receptor (Rattus norvegicus, UniProt Q9QYN8); assay: Binding affinity to rat histamine H3 receptor
Sequence (Q9QYN8 whole entry): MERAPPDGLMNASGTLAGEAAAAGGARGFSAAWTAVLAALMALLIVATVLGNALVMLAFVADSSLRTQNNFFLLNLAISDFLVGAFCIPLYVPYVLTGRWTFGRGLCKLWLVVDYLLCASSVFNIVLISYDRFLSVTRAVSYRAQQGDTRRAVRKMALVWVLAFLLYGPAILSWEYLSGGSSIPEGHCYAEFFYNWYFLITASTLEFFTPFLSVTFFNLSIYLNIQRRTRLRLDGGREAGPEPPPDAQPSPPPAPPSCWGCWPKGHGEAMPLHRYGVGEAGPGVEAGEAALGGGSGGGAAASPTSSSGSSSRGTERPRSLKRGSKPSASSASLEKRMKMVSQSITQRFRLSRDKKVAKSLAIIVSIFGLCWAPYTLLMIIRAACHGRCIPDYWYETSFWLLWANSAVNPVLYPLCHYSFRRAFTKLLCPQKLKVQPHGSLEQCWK

Ki [nM]	SMILES
0.58	c1cc(OCCCN2CCCCC2)ccc1CN1CCCCC1 [JNJ-5207852]

molecular target: T1, Histamine H3 receptor; assay: Displacement of [125I]Iodoproxyfan from recombinant human histamine H3 receptor expressed in HEK293 cells after 90 mins; format: cell-based

Ki [nM]	SMILES
2.95	c1ccc2c(c1)CCN(Cc1ccc(OCCCN3CCCCC3)cc1)C2
2.51	O=C1CCN(Cc2ccc(OCCCN3CCCCC3)cc2)CC1
2.04	c1cc(OCCCN2CCCCC2)ccc1CN1CCC2(CC1)OCCO2
11	C#CCNC(=O)C1CCN(Cc2ccc(OCCCN3CCCCC3)cc2)CC1
2.95	CCNC(=O)C1CCN(Cc2ccc(OCCCN3CCCCC3)cc2)CC1
